Results published in patent US8999973B2, “Thieno[3,2-d]pyrimidine derivatives having inhibitory activity on protein kinases” (Hanmi Science Co., Ltd, priority 2010, dated 2015).
Residue numbers refer to the chain shown, from its start.

How the values were obtained:
Bcr-Abl^T315I = target: T1, Bcr-Abl^T315I (Homo sapiens, UniProt P00519, T315I); test: Kinase activation assay (IC50), fluorescence polarization tyrosine kinase assay kit; assay type: biochemical; details: T315I mutation kinase domain (Millipore), Poly (Glu, Tyr) 4:1 substrate, FP readout
T1 construct: purchased Millipore
T1 sequence (P00519 242-493 T315I limits assumed): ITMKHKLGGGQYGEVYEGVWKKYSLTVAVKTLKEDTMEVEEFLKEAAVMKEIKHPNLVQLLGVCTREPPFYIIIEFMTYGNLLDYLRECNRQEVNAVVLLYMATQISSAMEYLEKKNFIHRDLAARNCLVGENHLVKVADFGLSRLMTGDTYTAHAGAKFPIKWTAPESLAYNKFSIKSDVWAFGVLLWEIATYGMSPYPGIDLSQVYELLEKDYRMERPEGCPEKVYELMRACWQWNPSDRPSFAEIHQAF
Procedure: (§1) Test 1: Kinase Activation Assay (IC50)
(§2) A kinase domain (Millipore) comprising the entire cytoplasmic sequences of Bcr-Abl^wt and Bcr-Abl^T315I mutation kinases and a tyrosine kinase assay kit (Panvera, P2837) were used to measure an inhibitory activation on Bcr-abl. Other kinases such as FGFR, Flt, KDR, PDGFR, Fms, Kit, Raf, Tie2, Src, and Ret were also measured by the same method. In order to prepare a sample, the each compound obtained in Examples 1 to 128 was diluted 10 times with a kinase buffer to a concentration of 10˜0.0001 μM.
(§3) The each kinase was diluted with a kinase buffer to a concentration of 30˜300 ng/assay by using the each Kd value. The kinase buffer consisted of 100 mM HEPES (PH 7.4), 25 mM MgCl2, 10 mM MnCl2, and 250 μM Na3VO4, being kept refrigerated after filtered.
(§4) The test was conducted in 96 well polystyrene round bottom plates. First, 10 μL of the diluted sample was combined with 10 μL of the enzyme solution at room temperature for 10 minutes using a shaker. 10 μL of Poly (Glu, Tyr) 4:1 (Sigma) matrix solution in an appropriate concentration and 10 μL of ATP solution (5˜300 μM) were added to the sample and subjected to a reaction at room temperature for 60 minutes in a shaker. After 60 minutes, an EDTA solution was added thereto to complete the kinase reaction and the reaction mixture was left in a shaker for 5 minutes at room temperature. A tracer, an antibody, and a fluorescence polarization (FP) diluted reaction solution were mixed at a ratio of 1:1:3 to prepare a detecting solution, 50 μL of which was added to the each sample and subjected to a reaction at room temperature for 30 minutes in a shaker. As fluorescing, light was blocked out and the FP value was measured using a FP instrument (excitation wavelength: 485 nm, and emission wavelength: 530 nm).
(§5) And the inhibition on kinase reaction was calculated for the sample in the range of 0˜100% as compared to the control group, and the concentration on x-axis at 50% inhibition was obtained as an inhibitory concentration (IC50) value.
(§6) 50% inhibitory concentration (IC50) Y=bottom+(top−bottom)/(1+10exp(X−log IC50)

Bcr-Abl^wt = target: T2, Bcr-Abl^wt (Homo sapiens, UniProt P00519); test: as above; assay type: biochemical; details: kinase domain (Millipore), Poly (Glu, Tyr) 4:1 substrate, FP readout
T2 construct: purchased Millipore
T2 sequence (P00519 242-493 limits assumed): T1 sequence (P00519 242-493 T315I limits assumed) with I74T
Procedure: as §1, §2, §3, §4, §5, §6

Row | IC50 (Bcr-Abl^T315I) | IC50 (Bcr-Abl^wt) | Compound
1 | 1000 to 10000 nM | 1 to 100 nM | CCN1CCN(c2cc(NC(=O)c3ccc(C)c(/C=C/c4csc5c(N)ncnc45)c3)cc(C(F)(F)F)c2)CC1 [Example 3, (E)-3-(2-(4-aminothieno[3,2-d]pyrimidine-7-yl)vinyl)-N-(3-(4-ethylpiperazine-1-yl)-5-(trifluoromethyl)phenyl)-4-methylbenzamide]
2 | 1000 to 10000 nM | 100 to 1000 nM | Cc1ccc(NC(=O)c2cccc(C(F)(F)F)c2)cc1/C=C/c1csc2c(N)ncnc12 [Example 6, (E)-N-(3-(2-(4-aminothieno[3,2-d]pyrimidine-7-yl)vinyl)-4-methylphenyl)-3-(trifluoromethyl)benzamide]
3 | 100 to 1000 nM | 1 to 100 nM | CCN1CCN(Cc2ccc(C(=O)Nc3ccc(C)c(/C=C/c4csc5c(N)ncnc45)c3)cc2C(F)(F)F)CC1 [Example 7, (E)-N-(3-(2-(4-aminothieno[3,2-d]pyrimidine-7-yl)vinyl)-4-methylphenyl)-4-((4-ethylpiperazin-1-yl)methyl)-3-(trifluoromethyl)benzamide]
4 | 1 to 100 nM | 1 to 100 nM | Cc1ccc(C(=O)Nc2cccc(C(F)(F)F)c2)cc1NC(=O)c1csc2c(N)ncnc12 [Example 8, 4-amino-N-(2-methyl-5-(3-(trifluoromethyl)phenylcarbamoyl)phenyl)thieno[3,2-d]pyrimidine-7-carboxamide]
5 | 100 to 1000 nM | 1 to 100 nM | COc1cc(NC(=O)c2ccc(C)c(NC(=O)c3csc4c(N)ncnc34)c2)cc(OC)c1 [Example 12, 4-amino-N-(5-(3,5-dimethoxyphenylcarbamoyl)-2-methylphenyl)thieno[3,2-d]pyrimidine-7-carboxamide]
6 | 1000 to 10000 nM | 100 to 1000 nM | COc1cc(Nc2ncnc3c(C(=O)Nc4cc(C(=O)Nc5cccc(C(F)(F)F)c5)ccc4C)csc23)cc(OC)c1OC [Example 14, N-(2-methyl-5-(3-(trifluoromethyl)phenylcarbamoyl)phenyl)-4-(3,4,5-trimethoxyphenylamino)thieno[3,2-d]pyrimidine-7-carboxamide]
7 | 1000 to 10000 nM | 1 to 100 nM | Cc1ccc(C(=O)Nc2cccc(C(F)(F)F)c2)cc1NC(=O)c1csc2c(NC(C)C)ncnc12 [Example 17, 4-(isopropylamino)-N-(2-methyl-5-(3-(trifluoromethyl)phenylcarbamoyl)phenyl)thieno[3,2-d]pyrimidine-7-carboxamide]
8 | 1000 to 10000 nM | 1 to 100 nM | CC(=O)OCc1ccc(NC(=O)c2ccc(C)c(NC(=O)c3csc4c(NC5CC5)ncnc34)c2)cc1C(F)(F)F [Example 23, 4-(3-(4-(cyclopropylamino)thieno[3,2-d]pyrimidine-7-carboxamido)-4-methylbenzamido)-2-(trifluoromethyl)benzyl acetate]
9 | 1 to 100 nM | 1 to 100 nM | Cc1ccc(C(=O)Nc2ccc(CO)c(C(F)(F)F)c2)cc1NC(=O)c1csc2c(NC3CC3)ncnc12 [Example 24, 4-(cyclopropylamino)-N-(5-(4-(hydroxymethyl)-3-(trifluoromethyl)phenylcarbamoyl)-2-methylphenyl)thieno[3,2-d]pyrimidine-7-carboxamide]
10 | 1000 to 10000 nM | 1 to 100 nM | Cc1ccc(C(=O)Nc2ccc(N3CCOCC3)nc2)cc1NC(=O)c1csc2c(NC3CC3)ncnc12 [Example 29, 4-(cyclopropylamino)-N-(2-methyl-5-(6-morpholinopyridine-3-ylcarbamoyl)phenyl)thieno[3,2-d]pyrimidine-7-carboxamide]
11 | 1000 to 10000 nM | 1000 to 10000 nM | CCN1CCN(c2ccc(NC(=O)c3ccc(C)c(NC(=O)c4csc5c(NC6CC6)ncnc45)c3)cn2)CC1 [Example 30, 4-(cyclopropylamino)-N-(5-(6-(4-ethylpiperazine-1-yl)pyridine-3-ylcarbamoyl)-2-methylphenyl)thieno[3,2-d]pyrimidine-7-carboxamide]
12 | 1 to 100 nM | 1 to 100 nM | Cc1cn(-c2cc(NC(=O)c3ccc(C)c(NC(=O)c4csc5c(NC6CC6)ncnc45)c3)cc(C(F)(F)F)c2)c(C)n1 [Example 31, 4-(cyclopropylamino)-N-(5-(3-(2,4-dimethyl-1H-imidazole-1-yl)-5-(trifluoromethyl)phenylcarbamoyl)-2-methylphenyl)thieno[3,2-d]pyrimidine-7-carboxamide]
13 | 1000 to 10000 nM | 1 to 100 nM | COc1ccc(C(=O)Nc2cc(-n3cnc(C)c3)cc(C(F)(F)F)c2)cc1NC(=O)c1csc2c(NC3CC3)ncnc12 [Example 36, 4-(cyclopropylamino)-N-(2-methoxy-5-(3-(4-methyl-1H-imidazole-1-yl)-5-(trifluoromethyl)phenylcarbamoyl)phenyl)thieno[3,2-d]pyrimidine-7-carboxamide]
14 | 1 to 100 nM | 1 to 100 nM | Cc1ccc(NC(=O)c2cccc(C(F)(F)F)c2)cc1NC(=O)c1csc2c(N)ncnc12 [Example 39, 4-amino-N-(2-methyl-5-(3-(trifluoromethyl)benzamido)phenyl)thieno[3,2-d]pyrimidine-7-carboxamide]
15 | 1 to 100 nM | 1 to 100 nM | Cc1ccc(NC(=O)c2cc(NCCCN(C)C)cc(C(F)(F)F)c2)cc1NC(=O)c1csc2c(NC3CC3)ncnc12 [Example 41, 4-(cyclopropylamino)-N-(5-(3-(3-(dimethylamino)propylamino)-5-(trifluoromethyl)benzamido)-2-methylphenyl)thieno[3,2-d]pyrimidine-7-carboxamide]
16 | 100 to 1000 nM | 1 to 100 nM | COc1cc(OC)cc(C(=O)Nc2ccc(C)c(NC(=O)c3csc4c(N)ncnc34)c2)c1 [Example 43, 4-amino-N-(5-(3,5-dimethoxybenzamido)-2-methylphenyl)thieno[3,2-d]pyrimidine-7-carboxamide]
17 | 1 to 100 nM | 1 to 100 nM | Cc1ccc(NC(=O)c2cc(-n3cccc3)cc(C(F)(F)F)c2)cc1NC(=O)c1csc2c(N)ncnc12 [Example 45, N-(5-(3-(1H-pyrrol-1-yl)-5-(trifluoromethyl)benzamido)-2-methylphenyl)-4-aminothieno[3,2-d]pyrimidine-7-carboxamide]
18 | 1 to 100 nM | 1 to 100 nM | CCN1CCN(Cc2ccc(C(=O)Nc3ccc(C)c(NC(=O)c4csc5c(N)ncnc45)c3)cc2C(F)(F)F)CC1 [Example 49, 4-amino-N-(5-(4-((4-ethylpiperazine-1-yl)methyl)-3-(trifluoromethyl)benzamido)-2-methylphenyl)thieno[3,2-d]pyrimidine-7-carboxamide]
19 | 1000 to 10000 nM | 100 to 1000 nM | COc1cc(C(=O)Nc2ccc(C)c(NC(=O)c3csc4c(N)ncnc34)c2)nc2ccccc12 [Example 56, 4-amino-N-(5-(4-methoxyquinoline-2-carboxyamido)-2-methylphenyl)thieno[3,2-d]pyrimidine-7-carboxamide]
20 | 1 to 100 nM | 1 to 100 nM | Cc1ccc(NC(=O)c2cc(-n3ccnc3C)cc(C(F)(F)F)c2)cc1NC(=O)c1csc2c(N)ncnc12 [Example 61, 4-amino-N-(2-methyl-5-(3-(2-methyl-1H-imidazole-1-yl)-5-(trifluoromethyl)benzamido)phenyl)thieno[3,2-d]pyrimidine-7-carboxamide]
21 | 1000 to 10000 nM | 1 to 100 nM | COc1cccc(C(=O)Nc2ccc(C)c(NC(=O)c3csc4c(N)ncnc34)c2)c1 [Example 65, 4-amino-N-(5-(3-methoxybenzamido)-2-methylphenyl)thieno[3,2-d]pyrimidine-7-carboxamide]
22 | 1000 to 10000 nM | 100 to 1000 nM | Cc1ccc(NC(=O)c2ccc(C(F)(F)F)cc2)cc1NC(=O)c1csc2c(N)ncnc12 [Example 66, 4-amino-N-(2-methyl-5-(4-(trifluoromethyl)benzamido)phenyl)thieno[3,2-d]pyrimidine-7-carboxamide]
